We go through three molecules from paper PMC3519909 (PLoS Biology, 2012).

The Km is the concentration of substrate that gives half-maximal velocity. What is called kcat is the maximal rate divided by the concentration of active sites.

One data set addresses T1, Ima5 (Saccharomyces cerevisiae, UniProt P40884).
T1 construct: crude extract of yeast overexpressing IMA5, compared with ima5 deletion mutant
T1 sequence (P40884 1-581): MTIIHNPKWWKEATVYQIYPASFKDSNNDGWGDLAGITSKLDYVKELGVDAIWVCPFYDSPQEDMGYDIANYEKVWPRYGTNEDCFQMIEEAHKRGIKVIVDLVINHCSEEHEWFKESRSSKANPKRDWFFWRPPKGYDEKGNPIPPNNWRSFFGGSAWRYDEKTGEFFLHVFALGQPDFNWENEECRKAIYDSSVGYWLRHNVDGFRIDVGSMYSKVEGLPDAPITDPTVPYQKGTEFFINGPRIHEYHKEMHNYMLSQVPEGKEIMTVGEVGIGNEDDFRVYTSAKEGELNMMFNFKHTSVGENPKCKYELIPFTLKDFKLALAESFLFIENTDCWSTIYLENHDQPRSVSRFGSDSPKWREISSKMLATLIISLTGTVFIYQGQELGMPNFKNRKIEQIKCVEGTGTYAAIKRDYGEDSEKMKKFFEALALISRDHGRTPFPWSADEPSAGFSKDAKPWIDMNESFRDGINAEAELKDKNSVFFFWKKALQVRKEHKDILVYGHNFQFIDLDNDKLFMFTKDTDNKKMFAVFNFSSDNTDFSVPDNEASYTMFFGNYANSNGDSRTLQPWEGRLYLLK
In words: glucose release, crude extract of IMA5-overexpressing yeast. It is filed as biochemical. The following applies: relative to ima5 deletion mutant.

The next data set has as its target T2, K. lactis [GI: 50312678] (Kluyveromyces lactis, UniProt Q6CSK8).
T2 construct: gene KLLA0_B00242g
Briefly: glucose oxidase/peroxidase coupled glucose release. It is filed as biochemical. The following applies: Michaelis-Menten or Hill fit.

Substrate in data set [1]: CO[C@H]1O[C@H](CO)[C@@H](O)[C@H](O)[C@H]1O
Briefly: glucose oxidase/peroxidase coupled glucose release. The following applies: Michaelis-Menten or Hill fit. It is filed as biochemical, Saccharomyces cerevisiae.

T2 sequence (Q6CSK8 entry or part of it): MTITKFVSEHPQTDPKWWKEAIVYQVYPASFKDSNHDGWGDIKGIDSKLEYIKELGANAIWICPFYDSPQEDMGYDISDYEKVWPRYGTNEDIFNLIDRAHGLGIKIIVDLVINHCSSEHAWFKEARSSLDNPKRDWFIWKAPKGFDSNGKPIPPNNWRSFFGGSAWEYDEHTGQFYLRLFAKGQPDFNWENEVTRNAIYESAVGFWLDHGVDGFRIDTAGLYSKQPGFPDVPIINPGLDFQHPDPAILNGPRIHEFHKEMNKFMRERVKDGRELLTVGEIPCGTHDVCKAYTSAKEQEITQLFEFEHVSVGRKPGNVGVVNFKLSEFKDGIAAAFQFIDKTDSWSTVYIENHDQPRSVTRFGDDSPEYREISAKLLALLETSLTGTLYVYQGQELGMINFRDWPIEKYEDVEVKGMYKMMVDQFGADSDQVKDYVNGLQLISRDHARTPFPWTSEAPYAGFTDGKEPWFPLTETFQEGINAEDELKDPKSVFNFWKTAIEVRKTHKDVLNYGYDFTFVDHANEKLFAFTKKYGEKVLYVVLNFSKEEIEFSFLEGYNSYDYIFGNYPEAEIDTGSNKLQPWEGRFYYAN

For `OC[C@H]1O[C@H](OC[C@H]2OC(O)[C@H](O)[C@@H](O)[C@@H]2O)[C@H](O)[C@@H](O)[C@@H]1O` (stereo partly shown) [isomaltose], the relative activity result on Ima5 is reported as “relative enzyme activity in crude extracts derived from a yeast strain overexpressing IMA5”.
`OC[C@H]1O[C@H](O[C@H]2[C@H](O)[C@@H](O)C(O)O[C@@H]2CO)[C@H](O)[C@@H](O)[C@@H]1O` (stereo partly shown) [maltose]: the Km result at K. lactis [GI: 50312678] was “one of the paralogs retains the broad specificity of ancMalS”.

B1: Ima1 (Saccharomyces cerevisiae S288C) (protein)
chain: TISSAHPETEPKWWKEATFYQIYPASFKDSNDDGWGDMKGIASKLEYIKELGADAIWISPFYDSPQDDMGYDIANYEKVWPTYGTNEDCFALIEKTHKLGMKFITDLVINHCSSEHEWFKESRSSKTNPKRDWFFWRPPKGYDAEGKPIPPNNWKSYFGGSAWTFDEKTQEFYLRLFCSTQPDLNWENEDCRKAIYESAVGYWLDHGVDGFRIDVGSLYSKVVGLPDAPVVDKNSTWQSSDPYTLNGPRIHEFHQEMNQFIRNRVKDGREIMTVGEMQHASDETKRLYTSASRHELSELFNFSHTDVGTSPLFRYNLVPFELKDWKIALAELFRYINGTDCWSTIYLENHDQPRSITRFGDDSPKNRVISGKLLSVLLSALTGTLYVYQGQELGQINFKNWPVEKYEDVEIRNNYNAIKEEHGENSEEMKKFLEAIALISRDHARTPMQWSREEPNAGFSGPSAKPWFYLNDSFREGINVEDEIKDPNSVLNFWKEALKFRKAHKDITVYGYDFEFIDLDNKKLFSFTKKYNNKTLFAALNFSSDATDFKIPNDDSSFKLEFGNYPKKEVDASSRTLKPWEGRIYISE
notes: purified present-day enzyme; expression details in Text S1
B1: in data set [1], the Michaelis-Menten constant (Km) is reported as 16.40 ± 0.73 mM and the catalytic constant (kcat) came to 0.2688 ± 0.00167 s⁻¹.
